According to US20060069132A1, “Azolecarboxamide herbicides” (priority 2004, published 2006):

Key:
ducksalad = test: Test C flooded paddy test; type: in vivo, Heteranthera limosa; conditions: for Plant response rating, Ducksalad: 500 g ai/ha, visual rating after 12 to 14 days
common ragweed = test: Test C pre-/postemergence herbicide test; type: in vivo, Ambrosia elatior; design: key to Plant response rating, Ragweed: 0 = no effect, 100 = complete control
Summary of the method: (§1)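 Greenhouse-grown plants were evaluated visually 12 to 14 days after treatment, with 100 meaning complete control and 0 no effect. Application was preemergence, or postemergence at 2 to 18 cm.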

morningglory = test: Test C pre-/postemergence herbicide test; type: in vivo, Ipomoea coccinea; design: key to Plant response rating, Morningglory: 0 = no effect, 100 = complete control
Summary of the method: as §1

barnyardgrass = test: Test C flooded paddy test; type: in vivo, Echinochloa crus-galli; conditions: for Plant response rating, Barnyardgrass: 500 g ai/ha, visual rating after 12 to 14 days
Summary of the method: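 Weeds and wheat were sprayed after emergence, at a height of 2 to 18 cm (1–4 leaves), and paddy barnyardgrass was flooded and treated at two leaves. Assessment took place 12–14 days later in the greenhouse on a 0-to-100 visual control scale. A dash means no result was obtained.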

corn = test: Test C pre-/postemergence herbicide test; type: in vivo, Zea mays
Summary of the method: as §1

velvetleaf = test: Test C pre-/postemergence herbicide test; type: in vivo, Abutilon theophrasti
Summary of the method: as §1

goosegrass = test: Test C pre-/postemergence herbicide test; type: in vivo, Eleusine indica
Summary of the method: as §1

johnsongrass = test: Test C pre-/postemergence herbicide test; type: in vivo, Sorghum halepense
Summary of the method: as §1

Surinam grass = test: Test C pre-/postemergence herbicide test; type: in vivo, Urochloa decumbens
Summary of the method: as §1

bermudagrass = test: Test C pre-/postemergence herbicide test; type: in vivo, Cynodon dactylon; conditions: for Bermudagrass plant response rating: 500 g ai/ha
Summary of the method: as §1

[1] = 125 g ai/ha, scale 0 to 100 (0 no effect, 100 complete control)
[2] = 250 g ai/ha, scale of 0 to 100, 0 is no effect, 100 is complete control
[3] = scale 0 to 100 (0 no effect, 100 complete control)
[4] = 62 g ai/ha, preemergence, scale 0 to 100
[5] = 250 g ai/ha, scale 0-100, preemergence
[6] = 500 g ai/ha, scale 0 to 100 (0 no effect, 100 complete control), visual, 12 to 14 days, preemergence
[7] = 125 g ai/ha, scale 0 (no effect) to 100 (complete control), visual, 12 to 14 days, preemergence
[8] = 62 g ai/ha, scale 0 to 100 (0 no effect, 100 complete control)
[9] = 62 g ai/ha, preemergence, scale 0 to 100, 0 no effect, 100 complete control
[10] = Preemergence, scale 0 to 100, 0 no effect, 100 complete control
[11] = Postemergence, 500 g ai/ha, scale 0 to 100
[12] = Postemergence, 250 g ai/ha, scale 0 to 100, 0 no effect, 100 complete control
[13] = postemergence, 125 g ai/ha, scale 0 to 100
[14] = postemergence, 62 g ai/ha, scale 0 to 100

CCn1nc(C2(C)CC2)cc1C(=O)Nc1cccc(C(=O)N2CC=CC2)c1 [Compound 304]
Ducksalad plant response rating (ducksalad; 62 g ai/ha, scale 0 to 100): 65 | Ducksalad plant response rating (ducksalad; [1]): 85 | Ducksalad plant response rating (ducksalad; [2]): 95 | Plant response rating, Ducksalad (ducksalad; [3]): 95 | Plant response rating, Ragweed (common ragweed; [4]): 0 | Plant response rating, Ragweed (common ragweed; [5]): 70 | Plant response rating, Ragweed (common ragweed; [6]): 70 | Plant response rating, Morningglory (morningglory; [4]): 0 | Plant response rating, Morningglory (morningglory; [7]): 10 | Plant response rating, Morningglory (morningglory; [5]): 10 | Plant response rating, Morningglory (morningglory; [6]): 10 | Barnyardgrass plant response rating (barnyardgrass; [8]): 40 | Barnyardgrass plant response rating (barnyardgrass; [1]): 50 | Barnyardgrass plant response rating (barnyardgrass; [2]): 85 | Plant response rating, Barnyardgrass (barnyardgrass; [3]): 95 | Plant response rating, Corn (corn; [4]): 0 | Plant response rating, Corn (corn; [7]): 0 | Plant response rating, Corn (corn; [5]): 15 | Plant response rating, Corn (corn; [6]): 30 | Plant response rating, Velvetleaf (velvetleaf; [4]): 0 | Plant response rating, Velvetleaf (velvetleaf; [6]): 60 | Plant response rating, Goosegrass (goosegrass; [4]): 45 | Plant response rating, Goosegrass (goosegrass; [7]): 85 | Plant response rating, Goosegrass (goosegrass; [5]): 90 | Plant response rating, Goosegrass (goosegrass; [6]): 100 | Plant response rating, Johnsongrass (johnsongrass; [4]): 0 | Plant response rating, Johnsongrass (johnsongrass; [7]): 60 | Plant response rating, Johnsongrass (johnsongrass; [5]): 70 | Plant response rating, Johnsongrass (johnsongrass; [6]): 80 | Plant response rating, Surinam Grass (Surinam grass; [4]): 0 | Plant response rating, Surinam Grass (Surinam grass; [5]): 40 | Plant response rating, Surinam Grass (Surinam grass; [6]): 85 | Plant response rating, Bermudagrass (bermudagrass; [9]): 5 | Plant response rating, Bermudagrass (bermudagrass; [7]): 70 | Plant response rating, Bermudagrass (bermudagrass; [5]): 100 | Bermudagrass plant response rating (bermudagrass; [10]): 100

CCn1nc(C(C)(C)C)cc1C(=O)Nc1cccc(OC(F)(F)C(F)F)c1 [Compound 333]
Ducksalad plant response rating (ducksalad; 62 g ai/ha, scale 0 to 100): 0 | Ducksalad plant response rating (ducksalad; [1]): 0 | Ducksalad plant response rating (ducksalad; [2]): 0 | Plant response rating, Ducksalad (ducksalad; [3]): 25 | Plant response rating, Ragweed (common ragweed; [4]): 0 | Plant response rating, Ragweed (common ragweed; [5]): 50 | Plant response rating, Ragweed (common ragweed; [6]): 65 | Ragweed plant response rating (common ragweed; [11]): 50 | Plant response rating, Ragweed (common ragweed; [12]): 50 | Plant response rating, Ragweed (common ragweed; [13]): 30 | Plant response rating, Ragweed (common ragweed; [14]): 5 | Plant response rating, Morningglory (morningglory; [4]): 0 | Plant response rating, Morningglory (morningglory; [7]): 0 | Plant response rating, Morningglory (morningglory; [5]): 0 | Plant response rating, Morningglory (morningglory; [6]): 10 | Morningglory plant response rating (morningglory; [11]): 10 | Plant response rating, Morningglory (morningglory; [12]): 10 | Plant response rating, Morningglory (morningglory; [13]): 0 | Plant response rating, Morningglory (morningglory; [14]): 0 | Barnyardgrass plant response rating (barnyardgrass; [8]): 0 | Barnyardgrass plant response rating (barnyardgrass; [1]): 0 | Barnyardgrass plant response rating (barnyardgrass; [2]): 10 | Plant response rating, Barnyardgrass (barnyardgrass; [3]): 20 | Plant response rating, Corn (corn; [4]): 0 | Plant response rating, Corn (corn; [7]): 0 | Plant response rating, Corn (corn; [5]): 0 | Plant response rating, Corn (corn; [6]): 0 | Corn plant response rating (corn; [11]): 5 | Plant response rating, Corn (corn; [12]): 5 | Plant response rating, Corn (corn; [13]): 5 | Plant response rating, Corn (corn; [14]): 5 | Plant response rating, Velvetleaf (velvetleaf; [4]): 0 | Plant response rating, Velvetleaf (velvetleaf; [5]): 50 | Plant response rating, Velvetleaf (velvetleaf; [6]): 55 | Velvetleaf plant response rating (velvetleaf; [11]): 80 | Plant response rating, Velvetleaf (velvetleaf; [12]): 50 | Plant response rating, Velvetleaf (velvetleaf; [13]): 50 | Plant response rating, Goosegrass (goosegrass; [4]): 0 | Plant response rating, Goosegrass (goosegrass; [7]): 30 | Plant response rating, Goosegrass (goosegrass; [5]): 85 | Plant response rating, Goosegrass (goosegrass; [6]): 100 | Goosegrass plant response rating (goosegrass; [11]): 15 | Plant response rating, Goosegrass (goosegrass; [12]): 10 | Plant response rating, Goosegrass (goosegrass; [13]): 10 | Plant response rating, Goosegrass (goosegrass; [14]): 5 | Plant response rating, Johnsongrass (johnsongrass; [4]): 0 | Plant response rating, Johnsongrass (johnsongrass; [7]): 0 | Plant response rating, Johnsongrass (johnsongrass; [5]): 5 | Plant response rating, Johnsongrass (johnsongrass; [6]): 5 | Johnsongrass plant response rating (johnsongrass; [11]): 0 | Plant response rating, Johnsongrass (johnsongrass; [12]): 0 | Plant response rating, Johnsongrass (johnsongrass; [13]): 0 | Plant response rating, Johnsongrass (johnsongrass; [14]): 0 | Plant response rating, Surinam Grass (Surinam grass; [5]): 5 | Plant response rating, Surinam Grass (Surinam grass; [6]): 20 | Surinam Grass plant response rating (Surinam grass; [11]): 10 | Plant response rating, Surinam Grass (Surinam grass; [12]): 5 | Plant response rating, Surinam Grass (Surinam grass; [13]): 5 | Plant response rating, Surinam Grass (Surinam grass; [14]): 5 | Plant response rating, Bermudagrass (bermudagrass; [9]): 40 | Plant response rating, Bermudagrass (bermudagrass; [7]): 85 | Plant response rating, Bermudagrass (bermudagrass; [5]): 100 | Bermudagrass plant response rating (bermudagrass; Postemergence, scale 0 to 100): 5 | Plant response rating, Bermudagrass (bermudagrass; [12]): 5 | Bermudagrass plant response rating (bermudagrass; [10]): 100 | Plant response rating, Bermudagrass (bermudagrass; [13]): 0 | Plant response rating, Bermudagrass (bermudagrass; [14]): 0
